# Measurements published in publication PMC9413201, “Covalent Proteomimetic Inhibitor of the Bacterial FtsQB Divisome Complex” (Journal of the American Chemical Society, 2022).
# Like-named read-outs stand apart in the source and are kept apart here.
# Columns and labels:
# [1] = tested on: E. coli lptD4213 (imp); test: Growth assay (OD600) with outer membrane-permeable E. coli lptD4213 (imp); format: cell-based; conditions: for Δt1/2 (delay in growth compared to DMSO-treated sample): inhibitor c = 50 μM, MOPS medium, 37 °C
# Experimental: Growth assays were performed to assess the in vitro cytotoxicity of peptides. The experiments were executed under sterile conditions. For each assay, 20 mL of fresh MOPS medium was prepared (Teknova Inc MOPS EZ Rich Defined Medium Kit | M2105: 40 mM MOPS, 4 mM Tricine, 0.01 mM FeSO4, 9.5 mM NH4Cl, 0.276 mM […]
# MOPS medium with Streptomycin (30 μg/mL) and incubated overnight at 200 rpm and 37°C. The next day, the […]
# peptide stocks in DMSO were diluted to four times the desired highest concentration to be measured in MOPS medium. The peptide dilutions were vortexed and briefly centrifuged. 50 μL of MOPS medium was added to each well of a Corning® 96-well Clear Flat Bottom Polystyrene TC-treated Microplate. A twofold dilution series was performed by adding 50 μL of the diluted peptide to the top row, mixing it and taking 50 μL to the next row. At each step the solution was resuspended five times. This was repeated until the last row which was skipped in order to obtain a reference measurement. After 2-3 h, the E.coli lptD4213 (imp) pre-culture was diluted to an OD600 of 0.00005. Then, 50 μL of diluted culture were added to each well and the plate sealed using a lid and parafilm. The OD600 was measured every 15 min over a period of more than 20 h (continuously shaking, 37°C) using a BioTek Synergy H1 plate reader. The obtained data were analyzed and relative growth curves plotted with GraphPad Prism 8. The assays were performed as technical triplicates. A single overnight pre-culture was used to prepare the diluted MOPS culture used in the growth assay. […]
# [2] = tested on: FtsB-mNG localization in E. coli lptD4213 (imp); test: Localization of FtsB-mNG (fluorescence microscopy); format: cell-based; conditions: peptide c = 100 μM, 60 min after addition, MOPS rich medium, 37 °C
# Experimental: were incubated for 1 h at 50 °C. The condensates were collected by centrifuging for 10 s. The digests were mixed for a few seconds and transferred to another tube. 0.5 % TFA was added to inactivate trypsin. The samples were […]
# E.coli mutant lptD4213 (imp)
# MOPS: MOPS EZ Rich Defined Medium Kit M2105 (Teknova).
# At the end of the day, the cells
# The next day, the cells were grown and diluted […]
# objective. […] In all experiments, the cells […]
# ex470/40, dic495LP, em525/50).
# [3] = target: T1, FtsQ(50–276) (Escherichia coli, UniProt P06136); format: biochemical, E. coli; design: pET16b FtsQ(50˗276), a His6 fusion; made in house; host or cells: Escherichia coli BL21 DE3
# Experimental: 1.5 Protein modification assay
# To determine the reactivity of the different modifiers FtsQ(50˗276) was diluted to a concentration of 100 µM in 20 mM NH4HCO3 buffer (pH 7.6, 150 mM NaCl). The individual peptides were diluted to a concentration of 250 μM in the same buffer. Equal volumes of both solutions were mixed and incubated at 37 °C for the given time period (1 h or 3 h). The reaction was quenched using 5x SDS sample buffer (pH 6.8, 1.875 g TRIS-Cl, 25 mL glycerol, 5 g SDS, 12.5 mL β-mercaptoethanol, 0.5 % bromphenol blue and add 50 mL ddH2O). Samples were heated to 96 °C for 2 min and subsequently analysed by 17 % tris/tricine PAGE (15 min at 90 V and then 3:45 h at 150 V). PageRuler™ Prestained Protein Ladder, 10 to 180 kDa (Thermo Scientific™) was used as a ladder.
# Staining was performed using standard Coomassie Staining Solution (40 mL EtOH, 0.3 g Coomassie Blue R250, 0.3 g Coomassie Blue G250, ad 100 mL ddH2O.) and then destained using water.
# 17 % Tris/Tricine gel (2x):
# Running gel: 1.6 mL H2O, 5.5 mL AB-mix, 2.5 mL Buffer A, 100 μL 10% APS, 10 μL 1% TEMED Stacking gel: 2.1 mL H2O, 0.5 mL AB-mix, 0.38 mL Buffer A, 50 μL 10% APS, 5 μL 1% TEMED […]
# Buffer A (4x) pH 8.45 3M Tris, 0.3 % SDS; Anode Buffer (10x) pH 8.8, 3M Tris; Cathode buffer (10x) 1M Tris, […]
# [4] = target: T1, FtsQ(50–276); conditions: tryptic digest, LC-MS/MS
# Experimental: μM CaCl2, 50 mM NaCl, traces of (NH4)6Mo7O24, H3BO3, CoCl2, CuSO4, MnCl2 and ZnSO4, 1.32 mM dibasic anhydrous […], 0.20% glucose, 1.5 mM KOH, 0.199 mM adenine, cytosine, uracil and guanine and 0.01 mM to 10 mM amino acids). A preculture of E.coli lptD4213 (imp) was prepared in 5 mL MOPS medium with streptomycin (30 μg/mL), which was grown overnight at 200 rpm and 37°C. The next day, the overnight culture was diluted a thousandfold and grown up to an OD600 of about 0.5 at 200 rpm and 37°C. After 2-3h, the culture was diluted to an OD600 of 0.1. 10 mM peptide stocks in DMSO were subsequently diluted to 200 μM in MOPS medium. For measuring two time points, a total volume of 110 μL peptide dilution was prepared, for 3 timepoints this was 160 μL. For each time point, 50 μL of diluted peptide was added into an Eppendorf tube, to which 50 μL diluted culture was added (final peptide concentration: 100 μM, starting OD600 = 0.05). The tubes were incubated for either 1,3 or 6 h at 200 rpm and 37°C. Then the cells were fixed using 8.3 μL 37% formaldehyde solution in H2O and incubated for 5 min at 200 rpm and 37°C. Subsequently, the mixture was centrifuged at 500 rpm for 5 min, after which the supernatant was discarded. The pellets were redissolved in 7.5 μL PBS buffer and stored at […]
# Microscopy slides were prepared by melting 1% Nobel Agarose in MiliQ water in a microwave. 800 μL was dispersed over a well slide, a microscopy slide was put on top and air bubbles were removed. The agar was allowed to cool for 15 min, after which the microscopy slide was removed. The frozen samples were thawed and 3 μL of each sample was added to separate wells, after which a covering glass was put on top. Using an Olympus IX83 microscope with 100 times magnification ocular and phase contrast (halogen lamp wat approximately 7V), the morphology of the cells was investigated. Pictures were taken and subsequently analyzed with ImageJ and the ObjectJ Cell Counter (https://sils.fnwi.uva.nl/bcb/objectj/examples/CellCounter/cellcounter-md/cellcounter.html, accessed on February 2020).
# For the MS/MS experiment samples were prepared as follows. The FtsQ(50˗276) stock solution was diluted to 100 μM and the stock of peptide 24fα was diluted to 250 μM with previously used binding buffer (20 mM NH4HCO3 (pH 7.6), 150 mM NaCl). 10 μL of each diluted stock were merged and the resulting mixture incubated over night at 37 °C. Then the samples were mixed with 5x SDS Sample buffer and 2.5 μL/lane loaded on to a 17% tris/tricine PAGE. The gel was run for 15 min at 90 V and 2h at 150 V.
# A container of glass was prepared and extensively washed with soda and water. The gel was placed in the container and incubated in fixing solution (50% EtOH, 3% H3PO4) overnight to remove SDS. The next day, the fixing solution was removed and the gel washed with water a couple of times. Colloidal Coomassie staining solution (34% MeOH, 3 % H3PO4, 150 g (NH4)2SO4/L, 1 g/L G250) was added and the gel stained for 2 d. Then the gel was washed 3x for 30 min with water. Then the bands corresponding to modified and unmodified FtsQ were cut out (1 mm3 pieces) from the gel and transferred to original Eppendorf tubes. The gel pieces were washed with 200 μL water by vortex mixing for 30 s. Then the water was discarded. The gel pieces were then washed with 200 μL MeOH:50 mM NH4HCO3 (1:1 v/v) for 1 min with intermittent vortex mixing. The supernatant was discarded and the procedure repeated once. Then the gel pieces were dehydrated for 5 min in 200 μL of ACN: 50 mM NH4HCO3 (1:1 v/v) with intermittent vortex mixing. The supernatants were discarded and 200 μL of 100 % ACN added, mixed and incubated for 30 s. The samples were dried in a SpeedVac (appr. 5 min). They were then […]
# rehydrated in 20 μL of 12 ng/μL Trypsin in 0.01% ProteaseMAX surfactant (Promega): 50 mM NH4HCO3 (Trypsin gold stock 1 μg/μl from Promega, high thermostability) for 10 min (2 μL to 200 μL) and overlayed with […]
# [5] = OD600 every 15 min over 22 h, n = 3 technical replicates
# T1 sequence (P06136 50-276): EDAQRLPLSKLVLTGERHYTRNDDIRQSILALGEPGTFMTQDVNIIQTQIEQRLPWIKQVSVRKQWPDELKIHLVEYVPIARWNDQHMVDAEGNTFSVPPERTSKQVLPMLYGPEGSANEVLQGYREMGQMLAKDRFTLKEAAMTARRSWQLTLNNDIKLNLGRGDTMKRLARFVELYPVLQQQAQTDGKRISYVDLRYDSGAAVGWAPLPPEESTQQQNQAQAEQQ
substance,measurement,setting,value
"A6NELSBTRPG6mFY (sidechain bridge or staple) [15fα, 24fα lacking seven N-terminal and two C-terminal amino acids; negative control peptide]",lowest concentration with inhibitory effect on growth,"[1]; concentration-dependent effect on growth after 15 h, highest tested concentration 100 μM, n = 3 replicates",> 100 µM
same,inhibitory activity on bacterial growth (OD600),"[1]; inhibitor c = 25 μM, OD600 every 15 min over 22 h, n = 3 technical replicates",did not exhibit inhibitory activity
same,FtsB-mNG midcell localization,[2],regular accumulation of FtsB-mNG at the midcell
"A6NELSBTRPG6mFYRL (sidechain bridge or staple) [17fγ, vinyl sulfone-modified 17-mer macrocyclic scaffold]",Δt1/2 (delay in growth compared to DMSO-treated sample),[1]; [5],4.5 h
same,specificity of FtsQ(50–276) modification (number of up-shifted bands),[3],two up-shifted bands
"A6NELSBTRPG6mFYRL (sidechain bridge or staple) [17fδ, dichlorotriazin-modified 17-mer macrocyclic scaffold]",Δt1/2 (delay in growth compared to DMSO-treated sample),[1]; [5],5.7 h
QEALEERA6NELSBTRPG6mFYRL (sidechain bridge or staple) [24fα],"count ratio 24fα-modified / unmodified FtsQ, ID 2 HYTRNDDIR",[4],1.60
same,"count ratio 24fα-modified / unmodified FtsQ, ID 3 […](*)",[4],0.43
same,"count ratio 24fα-modified / unmodified FtsQ, ID 4 K/QWPDELK/[…]",[4],1.01
same,"count ratio 24fα-modified / unmodified FtsQ, ID 5 […](*)",[4],1.20
same,"count ratio 24fα-modified / unmodified FtsQ, ID 6 […]/EMGQMLAK(*)",[4],1.00
same,"count ratio 24fα-modified / unmodified FtsQ, ID 7 DRFTLK",[4],1.03
same,"count ratio 24fα-modified / unmodified FtsQ, ID 8 EAAMTAR*",[4],0.62
same,"count ratio 24fα-modified / unmodified FtsQ, ID 9 R/[…] (contains K208)",[4],1.13
same,"count ratio 24fα-modified / unmodified FtsQ, ID 10 LNLGR/GDTMK/R (contains K218)",[4],0.56
same,"count ratio 24fα-modified / unmodified FtsQ, ID 11 […]/R (contains K239)",[4],0.20
same,"count ratio 24fα-modified / unmodified FtsQ, ID 12 ISYVDLR",[4],1.24
same,"count ratio 24fα-modified / unmodified FtsQ, ID 13 […]",[4],2.47
same,"count ratio 24fα-modified / unmodified FtsQ, ID 1 LVLTGER",[4]; peptide 125 μM + FtsQ 50 μM overnight 37 °C,1.17
same,Δt1/2 (delay in growth compared to DMSO-treated sample),[1]; [5],3.6 h
same,covalent labeling of FtsQ(50–276) (up-shifted band),"[3]; peptide 125 μM, FtsQ(50–276) 50 μM, 20 mM NH4HCO3 pH 7.6, 150 mM NaCl, 37 °C, 1 or 3 h",showed labeling of FtsQ(50–276)
QEALEERA6NELSBTRPG6mFYRL (sidechain bridge or staple) [24fβ],Δt1/2 (delay in growth compared to DMSO-treated sample),[1]; [5],1.7 h
same,covalent labeling of FtsQ(50–276) (up-shifted band),[3]; pH 7.6,showed labeling of FtsQ(50–276)
"QEALEERA6NELSBTRPG6mFYRL (sidechain bridge or staple) [24fγ, vinylsulfon-modified macrocyclic 24f, N-acetylated]",specificity of FtsQ(50–276) modification (number of up-shifted bands),[3],multiple up-shifted bands
same,covalent labeling of FtsQ(50–276) (up-shifted band),[3]; pH 7.6,showed labeling of FtsQ(50–276)
QEALEERA6NELSBTRPG6mFYRL (sidechain bridge or staple) [24fδ],Δt1/2 (delay in growth compared to DMSO-treated sample),[1]; [5],4.1 h
same,covalent labeling of FtsQ(50–276) (up-shifted band),[3]; pH 7.6,showed labeling of FtsQ(50–276)
